According to patent publication US12264156B2, “Compounds and pharmaceutical compositions thereof for the treatment of diseases” (GALAPAGOS NV, priority 2018, dated 2025):

Experiments:
SIK2 = molecular target: T1, SIK2 (Homo sapiens, UniProt Q9H0K1); experiment: ADP-Glo kinase assay, SIK2; assay type: biochemical; details: ADP-Glo SIK kinase assay
T1 construct: purchased ThermoFisher Scientific PV4792
Outline: (§1)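 Wells with 1% DMSO or 10 μM staurosporine (final) define the control window. The kinase reaction with substrate and ATP runs 120 min at RT, followed by ADP-Glo detection: ATP depletion (40 min) and ADP-derived luminescence (30 min).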

[1] = tested on: LPS triggered IL-10 secretion in monocytes; experiment: Monocytes assay: LPS-triggered IL-10 (ELISA); assay type: cell-based, human; details: LPS 200 ng/mL, supernatant after 4 h, maximal fold change vs LPS only
Outline: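 Human CD14+ monocytes, magnetically isolated from buffy-coat PBMCs, were seeded at 100 000 cells/well and preincubated with compound for 1 h at 37° C (0.2% DMSO). LPS was then added at a final 200 ng/mL for 4 h. Supernatant IL-10 was quantified by chemiluminescent sandwich ELISA against a standard curve.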

SIK3 = molecular target: T2, SIK3 (Homo sapiens, UniProt Q9Y2K2); experiment: ADP-Glo kinase assay, SIK3; assay type: biochemical; details: ADP-Glo SIK kinase assay
T2 construct: purchased SignalChem S12-11G-100
Outline: as §1

[2] = tested on: LPS-induced TNFα in monocytes; experiment: Monocytes assay: LPS-triggered TNFα (ELISA); assay type: cell-based, human; details: Homo sapiens, Monocyte, 4 h, LPS 200 ng/mL, supernatant after 4 h
Outline: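 Human CD14+ monocytes from buffy-coat PBMCs (magnetic bead selection) were seeded at 100 000 cells/well and pretreated with compound for 1 h at 37° C (0.2% DMSO). They were then stimulated with 200 ng/mL LPS for 4 h, and supernatant TNFα was measured by chemiluminescent sandwich ELISA as percent inhibition.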

SIK1 = molecular target: T3, SIK1 (Homo sapiens, UniProt P57059); experiment: ADP-Glo kinase assay, SIK1; assay type: biochemical; details: ADP-Glo SIK kinase assay
T3 construct: purchased Carna Biosciences 02-131
Outline: as §1

T2 sequence (Q9Y2K2 whole entry): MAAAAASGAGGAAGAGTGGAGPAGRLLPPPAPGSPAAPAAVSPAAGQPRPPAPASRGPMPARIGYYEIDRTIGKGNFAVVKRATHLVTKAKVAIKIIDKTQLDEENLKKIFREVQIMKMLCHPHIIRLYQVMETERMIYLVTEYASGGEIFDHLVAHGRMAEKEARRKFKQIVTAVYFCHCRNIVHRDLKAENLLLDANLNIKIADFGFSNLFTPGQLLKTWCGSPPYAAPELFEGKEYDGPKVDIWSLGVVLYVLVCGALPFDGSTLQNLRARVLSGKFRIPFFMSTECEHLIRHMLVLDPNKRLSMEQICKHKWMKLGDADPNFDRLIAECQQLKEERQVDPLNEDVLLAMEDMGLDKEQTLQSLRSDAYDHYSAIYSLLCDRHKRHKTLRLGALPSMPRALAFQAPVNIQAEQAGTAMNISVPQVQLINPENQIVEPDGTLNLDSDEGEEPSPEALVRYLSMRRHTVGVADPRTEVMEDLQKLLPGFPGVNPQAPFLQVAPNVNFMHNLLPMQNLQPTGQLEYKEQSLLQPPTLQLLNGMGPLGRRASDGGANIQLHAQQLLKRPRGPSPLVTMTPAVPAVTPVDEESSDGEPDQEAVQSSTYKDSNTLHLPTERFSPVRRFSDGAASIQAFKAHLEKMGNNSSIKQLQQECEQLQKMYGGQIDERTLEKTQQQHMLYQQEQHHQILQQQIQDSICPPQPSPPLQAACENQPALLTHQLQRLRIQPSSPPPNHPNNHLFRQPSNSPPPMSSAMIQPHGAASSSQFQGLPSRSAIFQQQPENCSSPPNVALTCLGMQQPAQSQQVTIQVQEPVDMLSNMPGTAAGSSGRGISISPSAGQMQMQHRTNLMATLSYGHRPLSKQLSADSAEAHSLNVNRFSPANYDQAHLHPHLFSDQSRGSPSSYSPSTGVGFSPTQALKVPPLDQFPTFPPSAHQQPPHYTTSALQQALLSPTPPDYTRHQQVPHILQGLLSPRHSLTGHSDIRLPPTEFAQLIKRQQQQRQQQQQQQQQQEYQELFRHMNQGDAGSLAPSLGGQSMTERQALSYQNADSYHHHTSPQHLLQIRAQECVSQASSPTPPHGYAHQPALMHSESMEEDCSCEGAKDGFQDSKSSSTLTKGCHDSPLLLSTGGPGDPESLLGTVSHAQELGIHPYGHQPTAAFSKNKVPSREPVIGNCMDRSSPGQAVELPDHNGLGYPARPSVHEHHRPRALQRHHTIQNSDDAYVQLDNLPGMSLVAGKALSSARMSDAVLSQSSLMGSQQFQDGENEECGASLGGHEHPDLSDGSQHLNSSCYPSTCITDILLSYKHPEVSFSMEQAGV
T1 sequence (Q9H0K1 whole entry): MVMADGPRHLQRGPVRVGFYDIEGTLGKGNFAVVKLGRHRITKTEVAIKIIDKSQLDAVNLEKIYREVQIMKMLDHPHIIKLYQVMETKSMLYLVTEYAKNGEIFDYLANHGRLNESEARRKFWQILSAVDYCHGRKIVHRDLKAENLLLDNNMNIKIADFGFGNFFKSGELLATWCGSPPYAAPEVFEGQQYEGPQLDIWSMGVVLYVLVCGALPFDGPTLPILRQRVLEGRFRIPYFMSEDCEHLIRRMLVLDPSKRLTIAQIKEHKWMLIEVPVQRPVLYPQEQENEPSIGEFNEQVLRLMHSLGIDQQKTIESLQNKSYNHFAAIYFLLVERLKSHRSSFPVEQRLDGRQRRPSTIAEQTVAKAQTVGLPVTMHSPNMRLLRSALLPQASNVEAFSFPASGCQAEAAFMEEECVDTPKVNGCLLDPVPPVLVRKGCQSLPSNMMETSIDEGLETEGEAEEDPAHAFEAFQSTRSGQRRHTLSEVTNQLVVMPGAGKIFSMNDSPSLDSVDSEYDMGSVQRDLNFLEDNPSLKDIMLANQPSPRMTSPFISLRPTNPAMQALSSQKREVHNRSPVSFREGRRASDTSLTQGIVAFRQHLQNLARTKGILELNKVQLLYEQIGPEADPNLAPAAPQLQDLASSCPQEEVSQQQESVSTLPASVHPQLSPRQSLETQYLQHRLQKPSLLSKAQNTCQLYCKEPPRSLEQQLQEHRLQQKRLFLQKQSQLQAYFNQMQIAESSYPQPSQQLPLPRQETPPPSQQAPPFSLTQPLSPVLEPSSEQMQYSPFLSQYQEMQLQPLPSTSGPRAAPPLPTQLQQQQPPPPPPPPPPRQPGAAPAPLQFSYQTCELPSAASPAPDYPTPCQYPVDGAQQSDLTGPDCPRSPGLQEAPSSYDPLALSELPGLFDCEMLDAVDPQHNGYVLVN
T3 sequence (P57059 whole entry): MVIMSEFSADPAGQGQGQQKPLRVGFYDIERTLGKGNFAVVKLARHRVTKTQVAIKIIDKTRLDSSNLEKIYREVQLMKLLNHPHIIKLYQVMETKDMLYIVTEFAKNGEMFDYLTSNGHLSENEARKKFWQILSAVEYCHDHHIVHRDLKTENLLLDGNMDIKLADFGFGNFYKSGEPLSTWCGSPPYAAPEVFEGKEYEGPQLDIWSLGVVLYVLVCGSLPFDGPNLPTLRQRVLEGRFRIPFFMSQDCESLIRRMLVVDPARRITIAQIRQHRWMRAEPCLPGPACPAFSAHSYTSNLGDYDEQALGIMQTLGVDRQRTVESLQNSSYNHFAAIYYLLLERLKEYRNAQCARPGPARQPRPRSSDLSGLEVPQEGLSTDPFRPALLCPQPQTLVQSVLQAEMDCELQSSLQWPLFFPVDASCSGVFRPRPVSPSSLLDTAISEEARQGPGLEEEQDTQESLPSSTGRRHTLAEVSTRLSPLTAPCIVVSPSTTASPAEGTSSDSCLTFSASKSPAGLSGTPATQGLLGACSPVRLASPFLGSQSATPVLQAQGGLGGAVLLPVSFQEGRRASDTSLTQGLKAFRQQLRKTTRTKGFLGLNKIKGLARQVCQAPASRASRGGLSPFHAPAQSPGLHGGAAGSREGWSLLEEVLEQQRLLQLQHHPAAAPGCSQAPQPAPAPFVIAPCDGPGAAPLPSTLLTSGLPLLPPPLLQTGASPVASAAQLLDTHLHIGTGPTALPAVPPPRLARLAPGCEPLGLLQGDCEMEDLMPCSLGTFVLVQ

Row | Compound | IC50 (SIK2) | IC50 (SIK3) | EC50 [2] | IC50 (SIK1) | IL-10 FCmax median [1]
1 | CCOC(=O)COc1ccn2c(-c3cc(OC)c(C(=O)NC4CC4)c(OC(F)F)c3)cnc2c1 [Cpd 268, ethyl 2-[3-[4-(cyclopropylcarbamoyl)-3-(difluoromethoxy)-5-methoxy-phenyl]imidazo[1,2-a]pyridin-7-yl]oxyacetate] | 10 to 100 nM | 0.01 to 10 nM | 100 to 1000 nM | 10 to 100 nM | +++ (>4.5)
2 | COc1cc(-c2cnc3cc(OCCCN4CC(O)(C(F)(F)F)C4)ccn23)cc(OC(F)F)c1C(=O)NC1CC1 [compound 348, N-cyclopropyl-2-(difluoromethoxy)-4-[7-[3-[3-hydroxy-3-(trifluoromethyl)azetidin-1-yl]propoxy]imidazo[1,2-a]pyridin-3-yl]-6-methoxy-benzamide] | 0.01 to 10 nM | 0.01 to 10 nM | 0.1 to 100 nM | 10 to 100 nM | ++ (>1.5-4.5)
3 | COc1cc(-c2cnc3cc(OC[C@H]4CCCNC4)ccn23)cc(OC(F)F)c1C(=O)NC1CC1 [Cpd 315, N-cyclopropyl-2-(difluoromethoxy)-6-methoxy-4-[7-[[(3S)-3-piperidyl]methoxy]imidazo[1,2-a]pyridin-3-yl]benzamide] | 0.01 to 10 nM | 0.01 to 10 nM | 100 to 1000 nM | 10 to 100 nM | ++ (>1.5-4.5)
4 | COc1cc(-c2cnc3cc(OC[C@@H]4CCN(C(C)C)C4)ccn23)cc(OC(F)F)c1C(=O)NC1CC1 [compound 337, N-cyclopropyl-2-(difluoromethoxy)-4-[7-[[(3R)-1-isopropylpyrrolidin-3-yl]methoxy]imidazo[1,2-a]pyridin-3-yl]-6-methoxy-benzamide] | 0.01 to 10 nM | 0.01 to 10 nM | 0.1 to 100 nM | 10 to 100 nM | +++ (>4.5)
5 | COc1cc(-c2cnc3cc(OC[C@@H]4CCCN(C(C)C)C4)ccn23)cc(OC(F)F)c1C(=O)NC1CC1 [compound 338, N-cyclopropyl-2-(difluoromethoxy)-4-[7-[[(3R)-1-isopropyl-3-piperidyl]methoxy]imidazo [1,2-a]pyridin-3-yl]-6-methoxy-benzamide] | 0.01 to 10 nM | 0.01 to 10 nM | 0.1 to 100 nM | 10 to 100 nM | ++ (>1.5-4.5)
6 | COc1cc(-c2cnc3cc(OCCCN4CCC5(COC5)C4)ccn23)cc(OC(F)F)c1C(=O)NC1CC1 [compound 285, N-cyclopropyl-2-(difluoromethoxy)-6-methoxy-4-[7-[3-(2-oxa-7-azaspiro[3.4]octan-7-yl)propoxy]imidazo[1,2-a]pyridin-3-yl]benzamide] | 0.01 to 10 nM | 0.01 to 10 nM | 100 to 1000 nM | 10 to 100 nM | +++ (>4.5)

Further lines, with some results ahead:

Row | IC50 (SIK2) | IC50 (SIK3) | EC50 [2] | IC50 (SIK1) | Compound | IL-10 FCmax median [1]
7 | 0.01 to 10 nM | 0.01 to 10 nM | 100 to 1000 nM | 10 to 100 nM | COc1cc(-c2cnc3cc(OCCCN4CC(C)(O)C4)ccn23)cc(OC(F)F)c1C(=O)NC1CC1 [compound 362, N-cyclopropyl-2-(difluoromethoxy)-4-[7-[3-(3-hydroxy-3-methyl-azetidin-1-yl)propoxy]imidazo[1,2-a]pyridin-3-yl]-6-methoxy-benzamide] | ++ (>1.5-4.5)
8 | 0.01 to 10 nM | 0.01 to 10 nM | 0.1 to 100 nM | 10 to 100 nM | CCOC(=O)C1CCN(CCCOc2ccn3c(-c4cc(OC)c(C(=O)NC5CC5)c(OC(F)F)c4)cnc3c2)CC1 [compound 377, ethyl 1-[3-[3-[4-(cyclopropylcarbamoyl)-3-(difluoromethoxy)-5-methoxy-phenyl]imidazo[1,2-a]pyridin-7-yl]oxypropyl]piperidine-4-carboxylate] | ++ (>1.5-4.5)
9 | 0.01 to 10 nM | 0.01 to 10 nM | 100 to 1000 nM | 10 to 100 nM | COc1cc(-c2cnc3cc(OCC(O)CN4CC(O)(C(F)(F)F)C4)ccn23)cc(OC(F)F)c1C(=O)NC1CC1 (stereo not drawn) [compound 375, N-cyclopropyl-2-(difluoromethoxy)-4-[7-[2-hydroxy-3-[3-hydroxy-3-(trifluoromethyl)azetidin-1-yl]propoxy]imidazo[1,2-a]pyridin-3-yl]-6-methoxy-benzamide] | +++ (>4.5)
